# The kinase profiling compilation of Christmann-Franck et al. (2016)
# Tests used:
# Experiment in all cases: radiometric filter-binding kinase assay, Kinaseprofiler
# [1] = molecular target: TXK (human) (UniProt P42681); conditions: ATP 200 µM
# [2] = molecular target: MAPK3 (human) (UniProt P27361); conditions: ATP 70 µM
# [3] = molecular target: FRK (human) (UniProt P42685); conditions: ATP 155 µM
# [4] = molecular target: EPHA2 (human) (UniProt P29317); conditions: ATP 155 µM
# [5] = molecular target: NTRK2 (human) (UniProt Q16620); conditions: ATP 90 µM
# [6] = molecular target: MAP2K7 (human) (UniProt O14733); conditions: ATP 10 µM
# [7] = molecular target: CSNK2A2 (human) (UniProt P19784); conditions: ATP 10 µM
# [8] = molecular target: DCLK2 (human) (UniProt Q8N568); conditions: ATP 90 µM
# [9] = molecular target: PLK1 (human) (UniProt P53350); conditions: ATP 70 µM
# [10] = molecular target: ROCK2 (human) (UniProt O75116); conditions: ATP 15 µM
# [11] = molecular target: CSNK1G1 (human) (UniProt Q9HCP0); conditions: ATP 15 µM
# [12] = molecular target: PRKCI (human) (UniProt P41743); conditions: ATP 155 µM
# [13] = molecular target: CDC42BPA (human) (UniProt Q5VT25); conditions: ATP 45 µM
# [14] = molecular target: CLK2 (human) (UniProt P49760); conditions: ATP 15 µM
# [15] = molecular target: ULK2 (human) (UniProt Q8IYT8); conditions: ATP 15 µM
# [16] = molecular target: STK10 (human) (UniProt O94804); conditions: ATP 200 µM
# [17] = molecular target: ABL2 (human) (UniProt P42684); conditions: ATP 45 µM
# [18] = molecular target: PAK6 (human) (UniProt Q9NQU5); conditions: ATP 10 µM
# [19] = molecular target: NEK7 (human) (UniProt Q8TDX7); conditions: ATP 45 µM
# [20] = molecular target: MAPK10 (human) (UniProt P53779); conditions: ATP 10 µM
# [21] = molecular target: PTK2B (human) (UniProt Q14289); conditions: ATP 90 µM
# [22] = molecular target: STK24 (human) (UniProt Q9Y6E0); conditions: ATP 15 µM
# [23] = molecular target: DAPK1 (human) (UniProt P53355); conditions: ATP 70 µM
# [24] = molecular target: LYN (human) (UniProt P07948); conditions: ATP 70 µM
# [25] = molecular target: CDC42BPB (human) (UniProt Q9Y5S2); conditions: ATP 10 µM
# [26] = molecular target: SRC (human) (UniProt P12931); conditions: ATP 200 µM
# [27] = molecular target: EPHB1 (human) (UniProt P54762); conditions: ATP 200 µM
# [28] = molecular target: JAK3 JH1 catalytic (human) (UniProt P52333); conditions: ATP 10 µM
# [29] = molecular target: TNK2 (human) (UniProt Q07912); conditions: ATP 70 µM
# [30] = molecular target: TSSK1B (human) (UniProt Q9BXA7); conditions: ATP 15 µM
# [31] = molecular target: FGFR4 (human) (UniProt P22455); conditions: ATP 155 µM
# [32] = molecular target: PRKCA (human) (UniProt P17252); conditions: ATP 45 µM
# [33] = molecular target: MINK1 (human) (UniProt Q8N4C8); conditions: ATP 185 µM
# Sequence of CDC42BPB (human) (Q9Y5S2 whole entry, looked up): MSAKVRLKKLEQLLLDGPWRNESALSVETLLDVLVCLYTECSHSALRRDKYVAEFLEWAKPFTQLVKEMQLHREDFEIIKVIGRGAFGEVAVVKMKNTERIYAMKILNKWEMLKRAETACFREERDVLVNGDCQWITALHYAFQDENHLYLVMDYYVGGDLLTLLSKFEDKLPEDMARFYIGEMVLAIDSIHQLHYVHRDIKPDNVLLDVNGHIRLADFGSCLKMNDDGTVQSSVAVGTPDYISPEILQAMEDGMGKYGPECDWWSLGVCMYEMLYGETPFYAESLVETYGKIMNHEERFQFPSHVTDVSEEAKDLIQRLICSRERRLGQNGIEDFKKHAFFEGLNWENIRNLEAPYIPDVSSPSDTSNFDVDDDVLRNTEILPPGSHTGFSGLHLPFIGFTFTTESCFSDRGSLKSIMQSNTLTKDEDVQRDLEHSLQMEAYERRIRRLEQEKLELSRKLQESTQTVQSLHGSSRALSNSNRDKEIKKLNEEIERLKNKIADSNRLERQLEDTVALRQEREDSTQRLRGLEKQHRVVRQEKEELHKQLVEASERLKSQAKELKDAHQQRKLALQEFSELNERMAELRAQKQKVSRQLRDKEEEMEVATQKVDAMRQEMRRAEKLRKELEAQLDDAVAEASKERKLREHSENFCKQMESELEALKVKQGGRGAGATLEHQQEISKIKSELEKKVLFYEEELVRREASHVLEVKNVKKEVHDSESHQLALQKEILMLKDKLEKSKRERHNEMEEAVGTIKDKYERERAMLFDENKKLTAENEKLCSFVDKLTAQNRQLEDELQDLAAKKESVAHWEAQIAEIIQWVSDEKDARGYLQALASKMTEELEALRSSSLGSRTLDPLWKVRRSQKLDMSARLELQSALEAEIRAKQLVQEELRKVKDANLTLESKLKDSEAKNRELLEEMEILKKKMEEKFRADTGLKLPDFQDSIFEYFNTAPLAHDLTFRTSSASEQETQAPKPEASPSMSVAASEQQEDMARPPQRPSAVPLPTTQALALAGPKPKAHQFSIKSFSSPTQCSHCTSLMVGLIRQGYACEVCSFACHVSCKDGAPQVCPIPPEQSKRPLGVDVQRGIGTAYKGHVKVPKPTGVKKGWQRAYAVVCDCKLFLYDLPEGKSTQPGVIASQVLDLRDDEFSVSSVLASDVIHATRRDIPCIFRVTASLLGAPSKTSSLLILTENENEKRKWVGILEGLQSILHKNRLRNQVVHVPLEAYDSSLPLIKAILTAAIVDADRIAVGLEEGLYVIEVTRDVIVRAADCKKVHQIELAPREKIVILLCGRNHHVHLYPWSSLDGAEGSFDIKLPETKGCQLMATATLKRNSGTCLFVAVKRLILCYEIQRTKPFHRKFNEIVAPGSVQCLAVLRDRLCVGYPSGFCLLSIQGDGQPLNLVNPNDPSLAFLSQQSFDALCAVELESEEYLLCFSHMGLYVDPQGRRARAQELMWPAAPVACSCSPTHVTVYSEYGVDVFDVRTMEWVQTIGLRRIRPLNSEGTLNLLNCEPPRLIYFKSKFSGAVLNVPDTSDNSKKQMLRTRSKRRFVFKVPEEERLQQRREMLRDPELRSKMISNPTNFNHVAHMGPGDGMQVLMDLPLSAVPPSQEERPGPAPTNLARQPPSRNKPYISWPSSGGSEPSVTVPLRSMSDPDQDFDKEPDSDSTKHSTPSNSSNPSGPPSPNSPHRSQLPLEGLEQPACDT
# Sequence of TSSK1B (human) (Q9BXA7 whole entry, looked up): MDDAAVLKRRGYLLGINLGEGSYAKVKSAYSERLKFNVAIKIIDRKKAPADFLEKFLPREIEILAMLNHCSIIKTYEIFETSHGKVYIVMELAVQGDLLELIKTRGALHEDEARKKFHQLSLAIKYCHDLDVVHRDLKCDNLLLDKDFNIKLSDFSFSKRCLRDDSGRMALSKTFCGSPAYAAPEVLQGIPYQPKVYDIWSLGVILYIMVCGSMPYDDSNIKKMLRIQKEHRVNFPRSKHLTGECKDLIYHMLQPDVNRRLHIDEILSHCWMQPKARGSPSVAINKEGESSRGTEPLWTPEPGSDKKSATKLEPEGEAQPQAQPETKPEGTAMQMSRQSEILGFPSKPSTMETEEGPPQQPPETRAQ
# Sequence of EPHA2 (human) (P29317 whole entry, looked up): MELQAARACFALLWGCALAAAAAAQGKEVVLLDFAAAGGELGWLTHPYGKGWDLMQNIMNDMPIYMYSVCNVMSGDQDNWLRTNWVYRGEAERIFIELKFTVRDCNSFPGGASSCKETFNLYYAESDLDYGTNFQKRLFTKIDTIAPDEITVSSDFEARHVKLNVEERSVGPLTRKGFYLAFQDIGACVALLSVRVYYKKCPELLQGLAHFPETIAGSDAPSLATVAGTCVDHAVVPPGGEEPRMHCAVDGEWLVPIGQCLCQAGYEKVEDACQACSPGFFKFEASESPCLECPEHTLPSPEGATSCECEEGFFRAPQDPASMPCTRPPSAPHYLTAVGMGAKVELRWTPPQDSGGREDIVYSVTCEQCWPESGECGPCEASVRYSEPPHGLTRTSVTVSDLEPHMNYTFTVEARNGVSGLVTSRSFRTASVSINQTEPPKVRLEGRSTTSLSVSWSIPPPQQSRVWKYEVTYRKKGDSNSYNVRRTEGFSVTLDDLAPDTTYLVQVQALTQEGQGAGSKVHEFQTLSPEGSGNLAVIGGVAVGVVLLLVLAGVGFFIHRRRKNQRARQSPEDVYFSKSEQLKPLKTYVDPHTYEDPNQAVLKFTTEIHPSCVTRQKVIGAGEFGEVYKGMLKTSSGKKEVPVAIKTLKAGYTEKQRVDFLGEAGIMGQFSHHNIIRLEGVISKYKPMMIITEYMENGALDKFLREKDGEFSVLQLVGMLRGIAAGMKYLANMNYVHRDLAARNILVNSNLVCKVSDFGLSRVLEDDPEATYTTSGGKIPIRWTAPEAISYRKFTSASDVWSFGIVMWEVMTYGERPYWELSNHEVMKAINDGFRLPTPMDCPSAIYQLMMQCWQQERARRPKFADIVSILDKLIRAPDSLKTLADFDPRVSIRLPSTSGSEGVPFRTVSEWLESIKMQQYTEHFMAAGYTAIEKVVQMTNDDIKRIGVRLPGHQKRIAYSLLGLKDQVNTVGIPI
# Sequence of PRKCI (human) (P41743 whole entry, looked up): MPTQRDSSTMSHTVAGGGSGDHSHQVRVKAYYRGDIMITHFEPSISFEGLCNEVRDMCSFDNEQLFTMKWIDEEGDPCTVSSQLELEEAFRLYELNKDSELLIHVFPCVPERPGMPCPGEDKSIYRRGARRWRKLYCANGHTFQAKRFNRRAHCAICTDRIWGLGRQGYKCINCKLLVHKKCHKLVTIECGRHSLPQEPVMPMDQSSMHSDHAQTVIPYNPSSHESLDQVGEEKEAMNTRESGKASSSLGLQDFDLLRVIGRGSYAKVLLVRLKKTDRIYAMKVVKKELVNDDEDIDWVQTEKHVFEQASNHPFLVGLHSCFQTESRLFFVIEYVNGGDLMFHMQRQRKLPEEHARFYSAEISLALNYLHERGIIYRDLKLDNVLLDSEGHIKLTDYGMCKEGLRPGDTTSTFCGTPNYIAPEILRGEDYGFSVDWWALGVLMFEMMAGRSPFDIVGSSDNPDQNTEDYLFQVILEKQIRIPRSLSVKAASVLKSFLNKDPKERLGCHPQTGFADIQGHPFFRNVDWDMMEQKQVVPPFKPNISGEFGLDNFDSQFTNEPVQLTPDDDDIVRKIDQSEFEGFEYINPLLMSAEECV
# Sequence of EPHB1 (human) (P54762 whole entry, looked up): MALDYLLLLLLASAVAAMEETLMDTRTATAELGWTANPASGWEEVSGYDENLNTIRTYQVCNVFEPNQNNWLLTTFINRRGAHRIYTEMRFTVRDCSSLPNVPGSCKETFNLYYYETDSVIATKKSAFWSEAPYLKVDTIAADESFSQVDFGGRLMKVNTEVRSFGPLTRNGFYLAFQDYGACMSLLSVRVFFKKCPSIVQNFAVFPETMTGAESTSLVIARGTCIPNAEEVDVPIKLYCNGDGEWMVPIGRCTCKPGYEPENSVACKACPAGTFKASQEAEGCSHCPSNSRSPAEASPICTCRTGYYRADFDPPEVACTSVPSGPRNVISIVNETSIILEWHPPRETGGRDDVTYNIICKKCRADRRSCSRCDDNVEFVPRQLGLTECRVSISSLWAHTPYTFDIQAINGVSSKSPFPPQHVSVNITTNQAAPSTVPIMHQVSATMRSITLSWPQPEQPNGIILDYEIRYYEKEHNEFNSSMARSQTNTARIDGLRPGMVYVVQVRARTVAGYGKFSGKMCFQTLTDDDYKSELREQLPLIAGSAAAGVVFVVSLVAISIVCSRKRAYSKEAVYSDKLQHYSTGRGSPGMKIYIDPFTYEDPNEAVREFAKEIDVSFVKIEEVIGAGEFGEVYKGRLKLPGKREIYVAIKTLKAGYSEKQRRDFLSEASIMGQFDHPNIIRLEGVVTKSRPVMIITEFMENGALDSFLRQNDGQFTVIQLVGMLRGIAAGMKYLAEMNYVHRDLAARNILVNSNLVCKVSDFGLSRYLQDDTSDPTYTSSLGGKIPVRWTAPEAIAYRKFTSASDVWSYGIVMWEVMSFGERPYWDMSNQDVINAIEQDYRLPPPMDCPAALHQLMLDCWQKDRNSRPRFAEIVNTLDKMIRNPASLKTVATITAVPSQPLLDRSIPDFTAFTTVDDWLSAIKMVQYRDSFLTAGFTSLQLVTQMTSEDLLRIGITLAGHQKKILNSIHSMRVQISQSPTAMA
# Sequence of CSNK2A2 (human) (P19784 whole entry, looked up): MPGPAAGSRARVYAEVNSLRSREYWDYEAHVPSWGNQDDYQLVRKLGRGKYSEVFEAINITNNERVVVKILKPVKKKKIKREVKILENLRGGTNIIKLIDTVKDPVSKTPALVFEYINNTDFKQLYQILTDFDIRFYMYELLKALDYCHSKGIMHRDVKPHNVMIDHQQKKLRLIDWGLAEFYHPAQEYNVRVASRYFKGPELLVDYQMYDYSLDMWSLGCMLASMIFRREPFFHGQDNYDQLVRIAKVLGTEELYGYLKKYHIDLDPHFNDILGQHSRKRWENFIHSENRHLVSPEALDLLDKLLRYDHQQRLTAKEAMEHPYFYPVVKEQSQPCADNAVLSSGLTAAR
structure (smiles),measurement,setting,value
O=C1c2ccccc2-c2n[nH]c3cccc1c23,residual activity,[1]; compound 1.0 µM,58%
same,residual activity,[1]; compound 10.0 µM,23%
same,residual activity,[2]; compound 1.0 µM,59%
same,residual activity,[2]; compound 10.0 µM,72%
same,residual activity,[3]; compound 1.0 µM,91%
same,residual activity,[3]; compound 10.0 µM,58%
same,residual activity,[4]; compound 1.0 µM,88%
same,residual activity,[4]; compound 10.0 µM,60%
same,residual activity,[5]; compound 1.0 µM,32%
same,residual activity,[5]; compound 10.0 µM,5%
same,residual activity,[6]; compound 1.0 µM,58%
same,residual activity,[6]; compound 10.0 µM,6%
same,residual activity,[7]; compound 1.0 µM,59%
same,residual activity,[7]; compound 10.0 µM,18%
same,residual activity,[8]; compound 1.0 µM,116%
same,residual activity,[8]; compound 10.0 µM,51%
same,residual activity,[9]; compound 1.0 µM,69%
same,residual activity,[9]; compound 10.0 µM,64%
same,residual activity,[10]; compound 1.0 µM,74%
same,residual activity,[10]; compound 10.0 µM,39%
same,residual activity,[11]; compound 1.0 µM,99%
same,residual activity,[11]; compound 10.0 µM,48%
same,residual activity,[12]; compound 1.0 µM,117%
same,residual activity,[12]; compound 10.0 µM,107%
same,residual activity,[13]; compound 1.0 µM,115%
same,residual activity,[13]; compound 10.0 µM,116%
same,residual activity,[14]; compound 1.0 µM,36%
same,residual activity,[14]; compound 10.0 µM,21%
same,residual activity,[15]; compound 1.0 µM,90%
same,residual activity,[15]; compound 10.0 µM,45%
same,residual activity,[16]; compound 1.0 µM,87%
same,residual activity,[16]; compound 10.0 µM,62%
same,residual activity,[17]; compound 1.0 µM,87%
same,residual activity,[17]; compound 10.0 µM,72%
same,residual activity,[18]; compound 1.0 µM,91%
same,residual activity,[18]; compound 10.0 µM,49%
same,residual activity,[19]; compound 1.0 µM,99%
same,residual activity,[19]; compound 10.0 µM,89%
same,residual activity,[20]; compound 1.0 µM,5%
same,residual activity,[20]; compound 10.0 µM,-6%
same,residual activity,[21]; compound 1.0 µM,68%
same,residual activity,[21]; compound 10.0 µM,23%
same,residual activity,[22]; compound 1.0 µM,57%
same,residual activity,[22]; compound 10.0 µM,21%
same,residual activity,[23]; compound 1.0 µM,91%
same,residual activity,[23]; compound 10.0 µM,68%
same,residual activity,[24]; compound 1.0 µM,70%
same,residual activity,[24]; compound 10.0 µM,30%
same,residual activity,[25]; compound 1.0 µM,90%
same,residual activity,[25]; compound 10.0 µM,95%
same,residual activity,[26]; compound 1.0 µM,89%
same,residual activity,[26]; compound 10.0 µM,64%
same,residual activity,[27]; compound 1.0 µM,91%
same,residual activity,[27]; compound 10.0 µM,29%
same,residual activity,[28]; compound 1.0 µM,57%
same,residual activity,[28]; compound 10.0 µM,9%
same,residual activity,[29]; compound 1.0 µM,50%
same,residual activity,[29]; compound 10.0 µM,12%
same,residual activity,[30]; compound 1.0 µM,75%
same,residual activity,[30]; compound 10.0 µM,49%
same,residual activity,[31]; compound 1.0 µM,110%
same,residual activity,[31]; compound 10.0 µM,89%
same,residual activity,[32]; compound 1.0 µM,98%
same,residual activity,[32]; compound 10.0 µM,73%
same,residual activity,[33]; compound 1.0 µM,86%
same,residual activity,[33]; compound 10.0 µM,50%
